{"source": "patent US8618068B2", "about": "“Methods and low dose regimens for treating red blood cell disorders” (priority 2009, dated 2013)", "key": {"fetal globin": {"tested_on": "fetal globin", "conditions": "cited from earlier work"}, "γ-globin mRNA": {"tested_on": "γ-globin mRNA", "assay": "γ-globin mRNA in anemic baboons given HU and DMB", "assay_type": "in vivo", "conditions": "HU 3 days/week"}, "[1]": {"tested_on": "micronucleated erythrocytes (PCEs)", "conditions": "cited from earlier work"}, "F-cells": {"tested_on": "F-cells", "assay": "F-cells in Bfu-e erythroid progenitor cultures", "assay_type": "cell-based"}, "[2]": {"tested_on": "β- and γ-globin gene promoters", "assay": "Double-luciferase reporter assay of γ-globin expression in GM979 cells", "assay_type": "cell-based, murine", "text": "DMB was compared to arginine butyrate (AB) for its ability to induce y-globin expression in a double-luciferase reporter assay in murine erythroleukemia (GM979) cells transfected with the pLCR linked to the β- and γ-globin gene promoters linked to a different luciferase gene."}}, "note": "Marks after values point to notes of the source that are not given here.", "data": [{"compound": "NC(=O)NO", "note": "[HU, hydroxyurea]", "values": [{"measurement": "patients in whom clinical benefit is observed", "setting": "fetal globin; SCD patients", "value": "40-50%"}, {"measurement": "treatment required for optimal effects on HbF", "setting": "fetal globin; at a level close to the maximum tolerated dose", "value": "6-9 months"}, {"measurement": "γ-globin mRNA increase above baseline", "setting": "γ-globin mRNA", "value": "80-120%"}]}, {"compound": "O=P1(N(CCCl)CCCl)NCCCO1", "note": "(stereo not shown) [cyclophosphamide]", "values": [{"measurement": "historical positive control values, mean±SD", "setting": "[1]", "value": "19.2±15.5 MN PCEs/1,000 PCEs"}]}, {"compound": "Nc1ncn([C@H]2C[C@H](O)[C@@H](CO)O2)c(=O)n1", "note": "[decitabine, 5-aza-2′-deoxycytidine, reference compound]", "values": [{"measurement": "F-cells increase above F-cell levels in control cultures", "setting": "F-cells", "value": "66-104%"}]}, {"compound": "Arginine butyrate [reference compound]", "values": [{"measurement": "Mean Fold Increase", "setting": "[2]; 0.5 mM, compared to untreated controls, p ≦ 0.01", "value": "1.8*"}, {"measurement": "γ/(γ + β) globin Expression, Range", "setting": "[2]; Active Concentration 0.5 mM", "value": "0.029-0.047"}]}]}
